In US9144239B2, “Macrocyclic picolinamides as fungicides” (DOW AGROSCIENCES LLC, priority 2012, dated 2015) one finds pest or weed control data, which are given here for 17 compounds.

Where two headings read alike, the source gives them in different places.

Holding throughout (type): in vivo
Experiment [1] deals with Puccinia triticina; synonym: Puccinia recondita f. sp. tritici. Description: Fungicide mobility (dropline mobility test): wheat brown rust (PUCCRT). The following applies: 1 ug/leaf. The procedure:
Evaluation of Fungicide Mobility: Wheat Brown Rust (Puccinia triticina; Synonym: Puccinia recondita f. sp. tritici; Bayer Code PUCCRT) “Yuma” wheat seedlings were used in the test. One mg of compound was dissolved in 9 μl of EC blank (emulsifiable concentrate) and 500 μl of acetone. Acetone was then evaporated overnight by leaving the vial open in a fume hood. Two milliliters of water containing 110 ppm Triton X-100 was added to each vial to prepare application solutions. A 2 μl drop of formulated material was applied to a marked line on the adaxial surface 5 cm from the leaf tip of the primary leaves. The primary leaves were kept in a horizontal position. Each treatment had 6 replicates. Plants were inoculated with PUCCRT 1-day after (1DPM) or 3-day prior to (3DCM) compound applications. When rust was fully expressed on primary leaves on control plants, the zone of treated leaves that was disease-free in the acropetal direction was measured with a ruler and converted to percent of the distance from marked line to leaf tip.

Experiment [2] has the same test system. Nature of the experiment: Fungicidal activity: wheat brown rust (PUCCRT), wheat seedlings. As to the method:
Technical grades of materials were dissolved in acetone, which were then mixed with nine volumes of water containing 110 ppm Triton X-100. The fungicide solutions were applied onto wheat seedlings using an automated booth sprayer to run-off. All sprayed plants were allowed to air dry prior to further handling. Wheat plants (variety Yuma) were grown from seed in a greenhouse in 50% mineral soil/50% soil-less Metro mix until the first leaf was fully emerged, with 7-10 seedlings per pot. These plants were inoculated with an aqueous spore suspension of Septoria tritici either prior to or after fungicide treatments. After inoculation the plants were kept in 100% relative humidity (one day in a dark dew chamber followed by two to three days in a lighted dew chamber at 20° C.) to permit spores to germinate and infect the leaf. The plants were then transferred to a greenhouse set at 20° C. for disease to develop. When disease symptoms were fully expressed on the 1st leaves of untreated plants, infection levels were assessed on a scale of 0 to 100 percent disease severity. Percent disease control was calculated using the ratio of disease severity on treated plants relative to untreated plants. Evaluation of Fungicidal Activity: Wheat Brown Rust (Puccinia […]; Synonym: Puccinia recondita f. Sp. Tritici; Bayer Code PUCCRT) Wheat plants (variety Yuma) were grown from seed in a greenhouse in 50% mineral soil/50% soil-less Metro mix until the first leaf was fully emerged, with 7-10 seedlings per pot. These plants were inoculated with an aqueous spore suspension of Puccinia triticina either prior to or after fungicide treatments. After inoculation the plants were kept in a dark dew room at 22° C. with 100% relative humidity overnight to permit spores to germinate and infect the leaf. The plants were then transferred to a greenhouse set at 24° C. for disease to develop. Fungicide formulation, application and disease assessment followed the procedures as described in the Example A.

Experiment [3] has as its system Mycosphaerella graminicola; anamorph: Septoria tritici. Nature of the experiment: Fungicidal activity: leaf blotch of wheat (SEPTTR), wheat seedlings. To be noted: Zymoseptoria tritici. The procedure: Evaluation of Fungicidal Activity: Leaf Blotch of Wheat (Mycosphaerella Graminicola; Anamorph: Septoria tritici; Bayer Code […]) Technical grades of materials were dissolved in acetone, which were then mixed with nine volumes of water containing 110 ppm Triton X-100. The fungicide solutions were applied onto wheat seedlings using an automated booth sprayer to run-off. All sprayed plants were allowed to air dry prior to further handling. Wheat plants (variety Yuma) were grown from seed in a greenhouse in 50% mineral soil/50% soil-less Metro mix until the first leaf was fully emerged, with 7-10 seedlings per pot. These plants were inoculated with an aqueous spore suspension of Septoria tritici either prior to or after fungicide treatments. After inoculation the plants were kept in 100% relative humidity (one day in a dark dew chamber followed by two to three days in a lighted dew chamber at 20° C.) to permit spores to germinate and infect the leaf. The plants were then transferred to a greenhouse set at 20° C. for disease to develop. When disease symptoms were fully expressed on the 1st leaves of untreated plants, infection levels were assessed on a scale of 0 to 100 percent disease severity. Percent disease control was calculated using the ratio of disease severity on treated plants relative to untreated plants.

[4] abbreviates: 24 h, 1 Day Protectant Mobility, read-out: Dropline Mobility Test PUCCRT 1DPM.
[5] abbreviates: 72 h, 3 Day Curative Mobility, read-out: Dropline Mobility Test PUCCRT 3DCM.
Where [6] appears, read: 24 h, 100 ppm, 1 Day Protectant, wheat, read-out: Disease Control PUCCRT 1DP.
The mark [7] stands for this setting: 72 h, 100 ppm, 3 Day Curative, wheat, read-out: Disease Control PUCCRT 3DC.
Where [8] appears, read: 24 h, 100 ppm, 1 Day Protectant, wheat, read-out: Disease Control SEPTTR 1DP.
Setting [9] is: 72 h, 100 ppm, 3 Day Curative, wheat, read-out: Disease Control SEPTTR 3DC.
Setting [10] is: 24 h, read-out: Disease Control PUCCRT 1DP.
The mark [11] stands for this setting: 72 h, read-out: Disease Control PUCCRT 3DC.
Where [12] appears, read: 24 h, read-out: Disease Control SEPTTR 1DP.
The mark [13] stands for this setting: 72 h, read-out: Disease Control SEPTTR 3DC.

For `COc1ccnc(C(=O)N[C@H]2COC[C@H](OCC(C)C)[C@@H](OC3CCCCC3)[C@H](C)OC2=O)c1O` [Compound 75], the pest or weed control at 1 µg/leaf in experiment [1] (setting [4]) and in experiment [1] (setting [5]) was 0 to 80% throughout. The pest or weed control at 100 ppm in experiment [2] (setting [6]) lay within 80 to 100%; in experiment [2] (setting [7]), 80 to 100%; in experiment [3] (setting [8]), 80 to 100%; in experiment [3] (setting [9]) it was 0 to 80%.
In the case of `COc1ccnc(C(=O)N[C@H]2COC[C@H](Oc3ccccc3)[C@@H](Oc3ccccc3)[C@H](C)OC2=O)c1OC(C)=O` [Compound 236], the pest or weed control at 1 µg/leaf in experiment [1] (setting [4]) is 0 to 80%. The pest or weed control at 100 ppm in experiment [2] (setting [6]), in experiment [2] (setting [7]), in experiment [3] (setting [8]) and in experiment [3] (setting [9]) was 80 to 100% in each case.
For the compound `CCCCCO[C@H]1[C@H](C)OC(=O)[C@@H](NC(=O)c2nccc(OC)c2O)COC[C@@H]1OCCCCC` [Compound 62], the pest or weed control at 1 µg/leaf in experiment [1] (setting [4]) lay in the range of 0 to 80%. In addition, the pest or weed control at 100 ppm in experiment [2] (setting [7]) and in experiment [3] (setting [9]) was 80 to 100% throughout.
`CCCCO[C@H]1COC[C@H](NC(=O)c2nccc(OC)c2OCOC(C)=O)C(=O)O[C@@H](C)[C@@H]1OC(=O)c1ccccc1` [Compound 69]: the pest or weed control at 1 µg/leaf in experiment [1] (setting [4]) and in experiment [1] (setting [5]) was 0 to 80% throughout. Further, the pest or weed control at 100 ppm in experiment [2] (setting [6]), in experiment [2] (setting [7]), in experiment [3] (setting [8]) and in experiment [3] (setting [9]) was 80 to 100% throughout.
Take `COc1ccnc(C(=O)N[C@H]2COC[C@H](OCC(C)C)[C@@H](O)[C@H](C)OC2=O)c1O` [Compound 70]: the pest or weed control at 1 µg/leaf in experiment [1] (setting [4]) and in experiment [1] (setting [5]) was 0 to 80% each time. The pest or weed control at 100 ppm in experiment [2] (setting [6]), in experiment [2] (setting [7]), in experiment [3] (setting [8]) and in experiment [3] (setting [9]) was 0 to 80% throughout.
Consider `CCCO[C@H]1[C@H](C)OC(=O)[C@@H](NC(=O)c2nccc(OC)c2O)COC[C@@H]1OCCC` [Compound 58, 3-hydroxy-4-methoxy-N-((3S,7S,8S,9S)-9-methyl-2-oxo-7,8-dipropoxy-1,5-dioxonan-3-yl)picolinamide], for which the pest or weed control at 1 µg/leaf in experiment [1] (setting [4]) was 80 to 100%; in experiment [1] (setting [5]), 0 to 80%. Moreover, the pest or weed control at 100 ppm in experiment [2] (setting [10]) was in the range of 80 to 100%; in experiment [2] (setting [11]) it was 80 to 100%; in experiment [3] (setting [12]) it was 0 to 80%; in experiment [3] (setting [13]), 0 to 80%.
As to `COc1ccnc(C(=O)N[C@H]2CO[C@@H](C)[C@H](OCC(C)C)[C@@H](OCC(C)C)[C@H](C)OC2=O)c1O` [Compound 26], the pest or weed control at 1 µg/leaf in experiment [1] (setting [4]) is 0 to 80%. The pest or weed control at 100 ppm was in the range of 80 to 100% in experiment [2] (setting [6]), 80 to 100% in experiment [2] (setting [7]), 80 to 100% in experiment [3] (setting [8]) and 0 to 80% in experiment [3] (setting [9]).
Consider `COCCC(=O)Oc1c(OC)ccnc1C(=O)N[C@H]1COC[C@H](Oc2ccccc2)[C@@H](Oc2ccccc2)[C@H](C)OC1=O` [Compound 235], for which the pest or weed control at 1 µg/leaf in experiment [1] (setting [4]) lay in the range of 0 to 80%. Moreover, the pest or weed control at 100 ppm in experiment [2] (setting [6]), in experiment [2] (setting [7]), in experiment [3] (setting [8]) and in experiment [3] (setting [9]) was 80 to 100% in each case.
Turning to `CCCCO[C@H]1COC[C@H](NC(=O)c2nccc(OC)c2O)C(=O)O[C@@H](C)[C@@H]1OC(=O)c1ccccc1` [Compound 66], the pest or weed control at 1 µg/leaf in experiment [1] (setting [4]) and in experiment [1] (setting [5]) was 0 to 80% throughout. In addition, the pest or weed control at 100 ppm in experiment [2] (setting [6]) lay in the range of 80 to 100%; in experiment [2] (setting [7]) it was 80 to 100%; in experiment [3] (setting [8]) it was 80 to 100%; in experiment [3] (setting [9]), 0 to 80%.
`CC[C@@H]1OC(=O)[C@@H](NC(=O)c2nccc(OC)c2OCOC(C)=O)COC[C@H](OCC(C)C)[C@H]1OCC(C)C` [Compound 23]: the pest or weed control at 100 ppm in experiment [2] (setting [6]), in experiment [2] (setting [7]), in experiment [3] (setting [8]) and in experiment [3] (setting [9]) was 80 to 100% each time.
Regarding `CCCCO[C@H]1COC[C@H](NC(=O)c2nccc(OC)c2O)C(=O)O[C@@H](C)[C@@H]1O` [Compound 42, N-((3S,7S,8S,9S)-7-butoxy-8-hydroxy-9-methyl-2-oxo-1,5-dioxonan-3-yl)-3-hydroxy-4-methoxypicolinamide], the pest or weed control at 100 ppm lay within 80 to 100% in experiment [2] (setting [6]), 80 to 100% in experiment [2] (setting [7]), 0 to 80% in experiment [3] (setting [8]) and 0 to 80% in experiment [3] (setting [9]).
Take `CCCO[C@H]1COC[C@H](NC(=O)c2nccc(OC)c2O)C(=O)O[C@@H](C)[C@@H]1Oc1ccccc1` [Compound 202]: the pest or weed control at 100 ppm in experiment [2] (setting [6]), in experiment [2] (setting [7]), in experiment [3] (setting [8]) and in experiment [3] (setting [9]) was 80 to 100% each time.
Regarding `CCOCC(=O)OCOc1c(OC)ccnc1C(=O)N[C@H]1COC[C@H](Oc2ccc(F)cc2)[C@@H](Oc2ccc(F)cc2)[C@H](C)OC1=O` [Compound 230], the pest or weed control at 100 ppm in experiment [2] (setting [6]), in experiment [2] (setting [7]), in experiment [3] (setting [8]) and in experiment [3] (setting [9]) was 80 to 100% each time.
With `COc1ccnc(C(=O)N[C@H]2COC[C@H](Oc3ccc(C)cc3)[C@@H](Oc3ccc(C)cc3)[C@H](C)OC2=O)c1O` [Compound 206], the pest or weed control at 100 ppm in experiment [2] (setting [6]), in experiment [2] (setting [7]), in experiment [3] (setting [8]) and in experiment [3] (setting [9]) was 80 to 100% in each case.
For `COc1ccnc(C(=O)N[C@@H]2COC[C@H](OCc3ccccc3)[C@@H](OCc3ccccc3)[C@@H](C)OC2=O)c1O` [Compound 30, N-((3R,7S,8S,9R)-7,8-bis(benzyloxy)-9-methyl-2-oxo-1,5-dioxonan-3-yl)-3-hydroxy-4-methoxypicolinamide], the pest or weed control at 100 ppm in experiment [2] (setting [10]), in experiment [2] (setting [11]), in experiment [3] (setting [12]) and in experiment [3] (setting [13]) was 0 to 80% in each case.
Consider `COc1ccnc(C(=O)N[C@H]2COC[C@H](Oc3ccc(F)cc3)[C@@H](Oc3ccc(F)cc3)[C@H](C)OC2=O)c1O` [Compound 208], for which the pest or weed control at 100 ppm in experiment [2] (setting [6]) lay in the range of 80 to 100%; in experiment [3] (setting [8]) it was 80 to 100%; in experiment [3] (setting [9]), 0 to 80%.
Turning to `COc1ccnc(C(=O)N[C@H]2COC[C@H](OCC(C)C)[C@@H](OCC(C)C)[C@@H](COCC(C)C)OC2=O)c1O` [Compound 15, N-((3S,7S,8R,9R)-7,8-diisobutoxy-9-(isobutoxymethyl)-2-oxo-1,5-dioxonan-3-yl)-3-hydroxy-4-methoxypicolinamide], the pest or weed control at 100 ppm in experiment [2] (setting [7]) and in experiment [3] (setting [8]) was 0 to 80% in each case.
